# Measured values taken from PubChem BioAssay AID1963837 (Molecular Pharmacology Branch, DTP, NCI, 2024).
# Tested on: 843126-344-R-J1-PDC complex spheroid viability
# Test: Anticancer human tumor 843126-344-R-J1-PDC patient-derived melanoma cell line growth inhibition [POLQ]
# Details: for IC50: curve of first compound; for viability, T/C: stronger effect = lower value
# Summary of the method: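 Growth inhibition in 3D: complex spheroids (tumor PDC, HUVEC, MSC) treated with POLQ inhibitor combinations; where Cmax unknown, highest tested concentration 10 microM, except SN-38 at 1 microM.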
# [1] = second compound 0.0316 µM, first compound 0.0316 µM
# [2] = second compound 0.0316 µM, first compound 0.1 µM
# [3] = second compound 0.0316 µM, first compound 0.316 µM
# [4] = second compound 0.0316 µM, first compound 1 µM
# [5] = second compound 0.0316 µM, first compound 3.16 µM
# [6] = second compound 0.0316 µM, first compound 10 µM
# [7] = second compound 0.1 µM, first compound 0.0316 µM
# [8] = second compound 0.1 µM, first compound 0.1 µM
# [9] = second compound 0.1 µM, first compound 0.316 µM
# [10] = second compound 0.1 µM, first compound 1 µM
# [11] = second compound 0.1 µM, first compound 3.16 µM
# [12] = second compound 0.1 µM, first compound 10 µM
# [13] = second compound 0.316 µM, first compound 0.0316 µM
# [14] = second compound 0.316 µM, first compound 0.1 µM
# [15] = second compound 0.316 µM, first compound 0.316 µM
# [16] = second compound 0.316 µM, first compound 1 µM
# [17] = second compound 0.316 µM, first compound 3.16 µM
# [18] = second compound 0.316 µM, first compound 10 µM
# [19] = second compound 1 µM, first compound 0.0316 µM
# [20] = second compound 1 µM, first compound 0.1 µM
# [21] = second compound 1 µM, first compound 0.316 µM
# [22] = second compound 1 µM, first compound 1 µM
# [23] = second compound 1 µM, first compound 3.16 µM
# [24] = second compound 1 µM, first compound 10 µM
# [25] = second compound 3.16 µM, first compound 0.0316 µM
# [26] = second compound 3.16 µM, first compound 0.1 µM
# [27] = second compound 3.16 µM, first compound 0.316 µM
# [28] = second compound 3.16 µM, first compound 1 µM
# [29] = second compound 3.16 µM, first compound 3.16 µM
# [30] = second compound 3.16 µM, first compound 10 µM
# [31] = second compound 10 µM, first compound 0.0316 µM
# [32] = second compound 10 µM, first compound 0.1 µM
# [33] = second compound 10 µM, first compound 0.316 µM
# [34] = second compound 10 µM, first compound 1 µM
# [35] = second compound 10 µM, first compound 3.16 µM
# [36] = second compound 10 µM, first compound 10 µM
# 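Throughout, for viability, T/C: spheroids exposed to drugs for seven days before readout.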
smiles,measurement,setting,value
C#Cc1c(F)ccc2cc(O)cc(-c3ncc4c(N5CC6CCC(C5)N6)nc(OCC56CCCN5CC(F)C6)nc4c3F)c12 (stereo unspecified) + COC1C(OC(N)=O)C(O)C(Oc2ccc3c(O)c(NC(=O)c4ccc(O)c(CC=C(C)C)c4)c(=O)oc3c2C)OC1(C)C,IC50,second compound 0.0316 µM,> 10 µM
same,IC50,second compound 0.1 µM,> 10 µM
same,IC50,second compound 0.316 µM,> 10 µM
same,IC50,second compound 1 µM,> 10 µM
same,IC50,second compound 3.16 µM,> 10 µM
same,IC50,second compound 10 µM,> 10 µM
same,"viability, T/C",[1],101%
same,"viability, T/C",[2],116%
same,"viability, T/C",[3],76.9%
same,"viability, T/C",[4],95.8%
same,"viability, T/C",[5],82.4%
same,"viability, T/C",[6],76%
same,"viability, T/C",[7],82%
same,"viability, T/C",[8],106%
same,"viability, T/C",[9],86.2%
same,"viability, T/C",[10],81.4%
same,"viability, T/C",[11],91.7%
same,"viability, T/C",[12],85.4%
same,"viability, T/C",[13],79.3%
same,"viability, T/C",[14],96.5%
same,"viability, T/C",[15],73.9%
same,"viability, T/C",[16],107%
same,"viability, T/C",[17],109%
same,"viability, T/C",[18],74.2%
same,"viability, T/C",[19],87.9%
same,"viability, T/C",[20],98.7%
same,"viability, T/C",[21],89.3%
same,"viability, T/C",[22],111%
same,"viability, T/C",[23],98.1%
same,"viability, T/C",[24],91.3%
same,"viability, T/C",[25],83.7%
same,"viability, T/C",[26],105%
same,"viability, T/C",[27],91.4%
same,"viability, T/C",[28],107%
same,"viability, T/C",[29],86.6%
same,"viability, T/C",[30],84%
same,"viability, T/C",[31],88.2%
same,"viability, T/C",[32],84.8%
same,"viability, T/C",[33],98.5%
same,"viability, T/C",[34],100%
same,"viability, T/C",[35],93.2%
same,"viability, T/C",[36],71.1%
CCc1cc2c(N3CCc4c(cc(Cn5ccnc5)cc4-c4cn(C)nc4C(F)(F)F)C3=O)cc(C)nc2c(OC)n1 + COC1C(OC(N)=O)C(O)C(Oc2ccc3c(O)c(NC(=O)c4ccc(O)c(CC=C(C)C)c4)c(=O)oc3c2C)OC1(C)C,IC50,second compound 0.0316 µM,> 10 µM
same,IC50,second compound 0.1 µM,8.91 µM
same,IC50,second compound 0.316 µM,> 10 µM
same,IC50,second compound 1 µM,> 10 µM
same,IC50,second compound 3.16 µM,> 10 µM
same,IC50,second compound 10 µM,> 10 µM
same,"viability, T/C",[1],103%
same,"viability, T/C",[2],78%
same,"viability, T/C",[3],89.6%
same,"viability, T/C",[4],74.5%
same,"viability, T/C",[5],74.3%
same,"viability, T/C",[6],59.8%
same,"viability, T/C",[7],90.6%
same,"viability, T/C",[8],87.1%
same,"viability, T/C",[9],89%
same,"viability, T/C",[10],81.1%
same,"viability, T/C",[11],64.6%
same,"viability, T/C",[12],48.4%
same,"viability, T/C",[13],96.2%
same,"viability, T/C",[14],80.6%
same,"viability, T/C",[15],72.4%
same,"viability, T/C",[16],68.2%
same,"viability, T/C",[17],74.2%
same,"viability, T/C",[18],56.4%
same,"viability, T/C",[19],76.9%
same,"viability, T/C",[20],67.4%
same,"viability, T/C",[21],69.4%
same,"viability, T/C",[22],68.5%
same,"viability, T/C",[23],72.4%
same,"viability, T/C",[24],71.3%
same,"viability, T/C",[25],91.1%
same,"viability, T/C",[26],77.4%
same,"viability, T/C",[27],76.9%
same,"viability, T/C",[28],62.5%
same,"viability, T/C",[29],72.7%
same,"viability, T/C",[30],61.8%
same,"viability, T/C",[31],82.1%
same,"viability, T/C",[32],96.1%
same,"viability, T/C",[33],84.2%
same,"viability, T/C",[34],66.2%
same,"viability, T/C",[35],58.5%
same,"viability, T/C",[36],62.6%
CCCS(=O)(=O)Nc1ccc(F)c(C(=O)c2c[nH]c3ncc(-c4ccc(Cl)cc4)cc23)c1F + COC1C(OC(N)=O)C(O)C(Oc2ccc3c(O)c(NC(=O)c4ccc(O)c(CC=C(C)C)c4)c(=O)oc3c2C)OC1(C)C,IC50,second compound 0.0316 µM,> 10 µM
same,IC50,second compound 0.1 µM,> 10 µM
same,IC50,second compound 0.316 µM,> 10 µM
same,IC50,second compound 1 µM,> 10 µM
same,IC50,second compound 3.16 µM,> 10 µM
same,IC50,second compound 10 µM,> 10 µM
same,"viability, T/C",[1],88.8%
same,"viability, T/C",[2],87.5%
same,"viability, T/C",[3],62.7%
same,"viability, T/C",[4],72.9%
same,"viability, T/C",[5],75.6%
same,"viability, T/C",[6],60%
same,"viability, T/C",[7],77.5%
same,"viability, T/C",[8],81.7%
same,"viability, T/C",[9],84.5%
same,"viability, T/C",[10],64.5%
same,"viability, T/C",[11],72.5%
same,"viability, T/C",[12],72.5%
same,"viability, T/C",[13],78.5%
same,"viability, T/C",[14],97.1%
same,"viability, T/C",[15],86.3%
same,"viability, T/C",[16],70.5%
same,"viability, T/C",[17],71.7%
same,"viability, T/C",[18],70.8%
same,"viability, T/C",[19],82.2%
same,"viability, T/C",[20],98.2%
same,"viability, T/C",[21],80.4%
same,"viability, T/C",[22],87.6%
same,"viability, T/C",[23],65.5%
same,"viability, T/C",[24],65%
same,"viability, T/C",[25],92.1%
same,"viability, T/C",[26],77.9%
same,"viability, T/C",[27],91.2%
same,"viability, T/C",[28],72.6%
same,"viability, T/C",[29],77.9%
same,"viability, T/C",[30],77.2%
same,"viability, T/C",[31],83.2%
same,"viability, T/C",[32],106%
same,"viability, T/C",[33],83.2%
same,"viability, T/C",[34],75.2%
same,"viability, T/C",[35],75.3%
same,"viability, T/C",[36],64.3%
